The values that follow come from patent US7378427B2, “Processes for preparing 6-alkyl-5-arylsulfonyl-dihydrophenanthridines” (Wyeth, priority 2004, dated 2008).

Broadly, the melting point is the temperature of the solid-liquid transition. In general, IC50 refers to the concentration at which inhibition is half-maximal. Lower therefore signals higher potency.

The test system of one data set is creatine kinase (CK). Put plainly: HAECT-1 creatine kinase (CK) expression assay in Ad5-wt-ER infected cells. The following applies: relative to the maximal stimulation observed with E2; Ad5-wt-ER infected HAECT-1 cells. Format: cell-based, human. As for the experimental part: T-175 flasks of 100% confluent HAECT-1 cells (immortalized human aortic endothelial cells) were washed with 8 mL of HBSS (HEPES buffered saline solution) and infected for four hours with 6 mL of a 1:10 dilution of Ad5-wt-hERα virus (an adenovirus transfection vector that mediates CMV promoter driven expression of human ERα) in phenol red free Endothelial Cell Basal medium (Clonetics, San Diego Calif., Catalog #CC-3129) containing 0.25% bovine serum albumin (EBM-BSA). After four hours, the cells were washed with EBM-BSA and incubated overnight in the same medium. Following overnight incubation, the cells were washed with EBM-BSA and infected for 2 hours with 6 mL of a 1:10 dilution of Ad5-3×(NFκB). […] The cells were then washed, trypsinized, counted and resuspended in 95% FBS/5% dimethylsulfoxide at a concentration of 4×10^6 cells/mL, frozen as 1 or 5 mL aliquots in cryo-vials and stored at −150° C. […]
ERα infected HAECT-1 cells or control cells were thawed, diluted 42× in warm EBM-BSA, plated into 96-well plates at 0.1 mL/well and incubated for 4 h at 34° C. […] Luciferase was determined on a Wallac Victor^2 Luminometer (Gaithersburg, Md.) using 10 μL of lysate and mixing with 100 μL of Promega Luciferase Assay reagent. Creatine kinase was determined from the rate of increase in A340 following addition of 100 μL of CK assay reagent (Sigma, cat. No 47-10) to the remainder of the cell lysate. […]

For a further data set, the system named is IL-6. Put plainly: HAECT-1 IL-6 expression assay (ELISA) in Ad5-wt-ER infected cells (IL-1β induced). Format: cell-based, human. The conditions noted are these: Ad5-wt-ER infected HAECT-1 cells; for IC50: IL-1β, IL-6 ELISA; for IL-6 Efficacy: relative to the maximal inhibition observed with E2. As for the experimental part:
T-175 flasks of 100% confluent HAECT-1 cells (immortalized human aortic endothelial cells) were washed with 8 mL of HBSS (HEPES buffered saline solution) and infected for four hours with 6 mL of a 1:10 dilution of Ad5-wt-hERα virus (an adenovirus transfection vector that mediates CMV promoter driven expression of human ERα) in phenol red free Endothelial Cell Basal medium (Clonetics, San Diego Calif., Catalog #CC-3129) containing 0.25% bovine serum albumin (EBM-BSA). After four hours, the cells were washed with EBM-BSA and incubated overnight in the same medium. Following overnight incubation, the cells were washed with EBM-BSA and infected for 2 hours with 6 mL of a 1:10 dilution of Ad5-3×(NFκB). Luc virus (Adenovirus luciferase expression vector driven by 3 repeats of the MHC NFκb site 5′ to the thymidine kinase promoter) in EBM-BSA. After two hours, the cells were washed and incubated at 34° C. for 1 hour. The cells were then washed, trypsinized, counted and resuspended in 95% FBS/5% dimethylsulfoxide at a concentration of 4×10^6 cells/mL, frozen as 1 or 5 mL aliquots in cryo-vials and stored at −150° C. Control (no ER infection) cells were processed as above without Ad5-wt-hERα virus infection.
ERα infected HAECT-1 cells or control cells were thawed, diluted 42× in warm EBM-BSA, plated into 96-well plates at 0.1 mL/well and incubated for 4 h at 34° C. Test compounds were added to the cells as 2× stocks in EBM-BSA containing 2 ng/mL IL-1β (R&D Systems) and plates were returned to the incubator (34° C.). After 15-20 h, 100 μL aliquots of media were removed from the cells and assayed for IL-6 content using a BioSource human IL-6 ELISA Kit. Cells were subsequently washed with 300 μL of Dulbecco's phosphate buffered saline and lysed in 50 μL of Cell Culture Lysis Reagent (Promega). Luciferase was determined on a Wallac Victor^2 Luminometer (Gaithersburg, Md.) using 10 μL of lysate and mixing with 100 μL of Promega Luciferase Assay reagent. Creatine kinase was determined from the rate of increase in A340 following addition of 100 μL of CK assay reagent (Sigma, cat. No 47-10) to the remainder of the cell lysate.
(§1) For IC50 and EC50 calculations, mean IL-6, luciferase or CK values versus log10 of the compound concentration were fitted to a four parameter logistic equation. The IC50/EC50 value, ‘Hill slope’, upper and lower limits of the curve were iteratively estimated.
(In general: In an ELISA, binding on a coated surface is turned into a signal by an enzyme label.)

For another data set, the system named is C57BL/6 mice. The data set is described as follows: Uterine wet weight increase in ovariectomized C57BL/6 mice. The class given is in vivo. The following applies: EE 0.01 mg/kg/day, test compound 10 mg/kg/day, gavage once daily for 5 weeks, compared to vehicle control. As for the experimental part: Ovariectomized C57BL/6 mice (16-20 g) (Taconic) were separated into groups of 8. After 5-7 days of recuperation, the mice were fed a chow diet or an atherogenic diet (15.75% fat, 1.25% cholesterol and 0.5% sodium cholate) (Purina diet #21539). EE or test compound was administered once daily by gavage in a methylcellulose/tween vehicle (0.1 ml per mouse) for 5 weeks. At the end of the experimental period, the liver was collected and uterine wet weight was recorded.

A further data set has as its system NF-κB. The data set is described as follows: HAECT-1 NF-κB luciferase reporter assay in Ad5-wt-ER infected cells (IL-1β induced). The following applies: Ad5-wt-ER infected HAECT-1 cells. The class given is cell-based, human. As for the experimental part: Control (no ER infection) cells were processed as above without Ad5-wt-hERα virus infection.
Cells were subsequently washed with 300 μL of Dulbecco's phosphate buffered saline and lysed in 50 μL of Cell Culture Lysis Reagent (Promega). Luciferase was determined on a Wallac Victor^2 Luminometer (Gaithersburg, Md.) using 10 μL of lysate and mixing with 100 μL of Promega Luciferase Assay reagent. Creatine kinase was determined from the rate of increase in A340 following addition of 100 μL of CK assay reagent (Sigma, cat. No 47-10) to the remainder of the cell lysate.
as §1
For orientation: Reporter assays use an easily measured gene product as a stand-in for the process of interest.

The structures appear in SMILES notation.

The molecule `C[C@H]1c2cc(F)ccc2-c2ccccc2N1S(=O)(=O)c1ccc(OS(N)(=O)=O)cc1` [Example 22, 4-{[(6S)-8-Fluoro-6-methylphenanthridin-5(6H)-yl]sulfonyl}phenyl sulfamate] had a melting point of 165.5 to 167.3 °C.
With `C[C@]12CC[C@@H]3c4ccc(O)cc4CC[C@H]3[C@@H]1CC[C@@H]2O` [Example E2, 17-β-estradiol, reference compound], the “CK Efficacy” value in the data set with creatine kinase (CK) is recorded as 100%. In the data set with IL-6, the IC50 was found to be 1.7 nM and the “IL-6 Efficacy” value is reported as 100%.
Molecule `C[C@H]1c2cc(F)ccc2-c2ccccc2N1S(=O)(=O)c1ccc(O)cc1` [Example 8, 4-[(S)-8-Fluoro-6-methyl-6H-phenanthridine-5-sulfonyl]-phenol] yielded a melting point of 193 °C. For the same molecule, in the data set with C57BL/6 mice, the “Uterine Wet Weight Increase, Efficacy (%)” value is reported as 0% and the “Uterine Wet Weight Increase, Fold Increase” value was 0. Further, it took 59 nM to reach half-maximal inhibition in the data set on NF-κB (Homo sapiens, HAECT1, IL-1β, luciferase reporter) (IC50). In addition, the “NF-κB Efficacy” value with NF-κB (relative to the maximal inhibition observed with E2) came to 99%. The midpoint of inhibition in the data set with IL-6 (Homo sapiens, HAECT1), the IC50, lay at 303 nM. Also, the “IL-6 Efficacy” value in the data set with IL-6 amounted to 118%.
Regarding `C#C[C@]1(O)CC[C@H]2[C@@H]3CCc4cc(O)ccc4[C@H]3CC[C@@]21C` [EE, reference compound], in the data set with C57BL/6 mice, the “Uterine Wet Weight Increase, Efficacy (%)” value is recorded as 100% and the “Uterine Wet Weight Increase, Fold Increase” value worked out at 5.0.
